From ChEMBL document CHEMBL2417377, “Hit-to-lead optimization and kinase selectivity of imidazo[1,2-a]quinoxalin-4-amine derived JNK1 inhibitors” (Bioorg Med Chem Lett, 2013)

What was measured:
Settings in all cases: PC-3
[1] = molecular target: T1, Dual specificity mitogen-activated protein kinase kinase 4 (Homo sapiens) (UniProt P45985); experiment: Inhibition of MAP2K4 in human PC3 cell lysates at 10 uM using desthiobiotin-tagged ATP probe AX9989 followed by trypsinization by LC/MS analysis
T1 sequence (whole entry): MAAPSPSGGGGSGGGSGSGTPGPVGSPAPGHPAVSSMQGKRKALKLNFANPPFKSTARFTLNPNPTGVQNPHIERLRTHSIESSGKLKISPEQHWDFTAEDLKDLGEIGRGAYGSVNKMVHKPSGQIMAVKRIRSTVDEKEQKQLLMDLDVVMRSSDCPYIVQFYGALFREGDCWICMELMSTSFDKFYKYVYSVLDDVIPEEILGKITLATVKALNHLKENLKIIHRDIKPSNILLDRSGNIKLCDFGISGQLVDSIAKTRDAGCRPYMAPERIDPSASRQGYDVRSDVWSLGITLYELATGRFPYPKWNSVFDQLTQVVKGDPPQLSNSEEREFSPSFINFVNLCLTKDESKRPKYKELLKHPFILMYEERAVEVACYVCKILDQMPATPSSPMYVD

[2] = molecular target: T2, Serine/threonine-protein kinase 3 (Homo sapiens) (UniProt Q13188); experiment: Inhibition of MST2 in human PC3 cell lysates at 10 uM using desthiobiotin-tagged ATP probe AX9989 followed by trypsinization by LC/MS analysis
T2 sequence (whole entry): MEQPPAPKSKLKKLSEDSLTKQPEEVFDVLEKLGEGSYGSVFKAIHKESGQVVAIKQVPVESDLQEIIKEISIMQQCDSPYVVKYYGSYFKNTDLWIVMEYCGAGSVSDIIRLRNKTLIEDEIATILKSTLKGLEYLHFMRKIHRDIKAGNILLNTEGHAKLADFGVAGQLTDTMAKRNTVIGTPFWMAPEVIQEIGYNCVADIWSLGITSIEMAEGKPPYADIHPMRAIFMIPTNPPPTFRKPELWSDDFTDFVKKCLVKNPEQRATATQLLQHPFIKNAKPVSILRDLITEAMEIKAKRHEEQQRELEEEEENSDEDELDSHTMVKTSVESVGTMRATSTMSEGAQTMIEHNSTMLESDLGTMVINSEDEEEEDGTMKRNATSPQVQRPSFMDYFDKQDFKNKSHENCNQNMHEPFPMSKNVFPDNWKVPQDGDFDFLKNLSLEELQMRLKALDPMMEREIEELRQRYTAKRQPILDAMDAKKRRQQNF

[3] = molecular target: Rho-associated protein kinase 2 (Homo sapiens) (UniProt O75116); experiment: Inhibition of ROCK2 in human PC3 cell lysates at 10 uM using desthiobiotin-tagged ATP probe AX9989 followed by trypsinization by LC/MS analysis
Sequence of Rho-associated protein kinase 2 (Homo sapiens) (O75116 whole entry, looked up): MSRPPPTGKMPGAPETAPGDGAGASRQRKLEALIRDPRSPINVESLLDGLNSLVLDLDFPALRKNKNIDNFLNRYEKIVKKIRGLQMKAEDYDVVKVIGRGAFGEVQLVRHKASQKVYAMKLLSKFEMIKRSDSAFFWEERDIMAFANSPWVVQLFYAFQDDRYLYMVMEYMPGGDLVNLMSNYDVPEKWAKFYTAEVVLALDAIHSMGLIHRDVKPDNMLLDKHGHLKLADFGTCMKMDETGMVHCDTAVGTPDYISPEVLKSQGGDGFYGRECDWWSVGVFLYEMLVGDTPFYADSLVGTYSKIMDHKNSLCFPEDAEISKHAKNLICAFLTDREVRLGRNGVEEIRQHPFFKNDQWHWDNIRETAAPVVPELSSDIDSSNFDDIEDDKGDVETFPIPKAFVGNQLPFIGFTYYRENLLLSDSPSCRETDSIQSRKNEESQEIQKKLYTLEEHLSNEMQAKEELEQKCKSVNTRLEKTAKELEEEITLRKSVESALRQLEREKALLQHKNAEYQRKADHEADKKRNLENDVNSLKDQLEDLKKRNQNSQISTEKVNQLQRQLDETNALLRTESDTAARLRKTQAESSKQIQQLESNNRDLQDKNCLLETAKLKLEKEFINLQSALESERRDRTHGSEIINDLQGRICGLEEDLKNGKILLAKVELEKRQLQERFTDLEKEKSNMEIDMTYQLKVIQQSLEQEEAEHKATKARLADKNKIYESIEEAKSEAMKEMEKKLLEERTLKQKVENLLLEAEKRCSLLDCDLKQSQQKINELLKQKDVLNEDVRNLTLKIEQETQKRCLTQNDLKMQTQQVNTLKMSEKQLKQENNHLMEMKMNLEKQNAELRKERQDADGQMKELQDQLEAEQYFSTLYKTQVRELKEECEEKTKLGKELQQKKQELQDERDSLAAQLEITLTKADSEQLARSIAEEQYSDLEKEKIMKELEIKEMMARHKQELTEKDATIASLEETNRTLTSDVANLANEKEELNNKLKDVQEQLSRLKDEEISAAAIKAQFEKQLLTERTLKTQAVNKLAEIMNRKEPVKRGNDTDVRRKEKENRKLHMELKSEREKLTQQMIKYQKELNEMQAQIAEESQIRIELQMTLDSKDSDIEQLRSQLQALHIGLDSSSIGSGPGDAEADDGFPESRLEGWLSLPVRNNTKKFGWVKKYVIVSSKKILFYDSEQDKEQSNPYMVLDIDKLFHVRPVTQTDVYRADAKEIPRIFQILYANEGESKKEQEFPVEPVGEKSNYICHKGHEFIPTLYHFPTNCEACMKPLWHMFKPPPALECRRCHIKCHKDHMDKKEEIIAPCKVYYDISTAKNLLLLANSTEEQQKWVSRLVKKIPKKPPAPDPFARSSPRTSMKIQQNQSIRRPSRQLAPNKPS

[4] = molecular target: Cyclin-dependent kinase 2 (Homo sapiens) (UniProt P24941); experiment: Inhibition of CDK2 in human PC3 cell lysates at 10 uM using desthiobiotin-tagged ATP probe AX9989 followed by trypsinization by LC/MS analysis
[5] = molecular target: T3, Dual specificity mitogen-activated protein kinase kinase 3 (Homo sapiens) (UniProt P46734); experiment: Inhibition of MAP2K3 in human PC3 cell lysates at 10 uM using desthiobiotin-tagged ATP probe AX9989 followed by trypsinization by LC/MS analysis
T3 sequence (whole entry): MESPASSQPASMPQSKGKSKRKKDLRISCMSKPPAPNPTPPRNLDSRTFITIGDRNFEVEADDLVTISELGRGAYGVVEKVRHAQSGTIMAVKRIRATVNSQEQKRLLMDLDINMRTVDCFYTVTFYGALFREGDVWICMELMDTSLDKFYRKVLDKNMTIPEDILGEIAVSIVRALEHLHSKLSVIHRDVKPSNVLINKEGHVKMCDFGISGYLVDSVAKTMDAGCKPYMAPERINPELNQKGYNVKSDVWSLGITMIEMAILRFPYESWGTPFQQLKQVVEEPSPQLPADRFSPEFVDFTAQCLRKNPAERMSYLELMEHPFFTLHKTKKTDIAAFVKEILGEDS

[6] = molecular target: p38 delta/gamma (Homo sapiens) (UniProt O15264+P53778); experiment: Inhibition of p38delta/gamma in human PC3 cell lysates at 10 uM using desthiobiotin-tagged ATP probe AX9989 followed by trypsinization by LC/MS analysis; type: protein assay
[7] = molecular target: Serine/threonine-protein kinase 16 (Homo sapiens) (UniProt O75716); experiment: Inhibition of MPSK1 in human PC3 cell lysates at 10 uM using desthiobiotin-tagged ATP probe AX9989 followed by trypsinization by LC/MS analysis
Sequence of Serine/threonine-protein kinase 16 (Homo sapiens) (O75716 whole entry): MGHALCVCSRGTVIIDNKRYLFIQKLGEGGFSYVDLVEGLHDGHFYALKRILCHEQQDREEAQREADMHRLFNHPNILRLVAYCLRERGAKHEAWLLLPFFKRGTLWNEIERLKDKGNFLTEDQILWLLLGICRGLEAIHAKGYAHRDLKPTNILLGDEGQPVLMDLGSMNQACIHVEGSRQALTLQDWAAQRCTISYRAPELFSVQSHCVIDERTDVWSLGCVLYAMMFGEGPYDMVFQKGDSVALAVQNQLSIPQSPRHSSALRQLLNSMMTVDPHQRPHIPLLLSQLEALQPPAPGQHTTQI

[8] = molecular target: T4, Ephrin type-B receptor 2 (Homo sapiens) (UniProt P29323); experiment: Inhibition of EphB2 in human PC3 cell lysates at 10 uM using desthiobiotin-tagged ATP probe AX9989 followed by trypsinization by LC/MS analysis
T4 sequence (whole entry): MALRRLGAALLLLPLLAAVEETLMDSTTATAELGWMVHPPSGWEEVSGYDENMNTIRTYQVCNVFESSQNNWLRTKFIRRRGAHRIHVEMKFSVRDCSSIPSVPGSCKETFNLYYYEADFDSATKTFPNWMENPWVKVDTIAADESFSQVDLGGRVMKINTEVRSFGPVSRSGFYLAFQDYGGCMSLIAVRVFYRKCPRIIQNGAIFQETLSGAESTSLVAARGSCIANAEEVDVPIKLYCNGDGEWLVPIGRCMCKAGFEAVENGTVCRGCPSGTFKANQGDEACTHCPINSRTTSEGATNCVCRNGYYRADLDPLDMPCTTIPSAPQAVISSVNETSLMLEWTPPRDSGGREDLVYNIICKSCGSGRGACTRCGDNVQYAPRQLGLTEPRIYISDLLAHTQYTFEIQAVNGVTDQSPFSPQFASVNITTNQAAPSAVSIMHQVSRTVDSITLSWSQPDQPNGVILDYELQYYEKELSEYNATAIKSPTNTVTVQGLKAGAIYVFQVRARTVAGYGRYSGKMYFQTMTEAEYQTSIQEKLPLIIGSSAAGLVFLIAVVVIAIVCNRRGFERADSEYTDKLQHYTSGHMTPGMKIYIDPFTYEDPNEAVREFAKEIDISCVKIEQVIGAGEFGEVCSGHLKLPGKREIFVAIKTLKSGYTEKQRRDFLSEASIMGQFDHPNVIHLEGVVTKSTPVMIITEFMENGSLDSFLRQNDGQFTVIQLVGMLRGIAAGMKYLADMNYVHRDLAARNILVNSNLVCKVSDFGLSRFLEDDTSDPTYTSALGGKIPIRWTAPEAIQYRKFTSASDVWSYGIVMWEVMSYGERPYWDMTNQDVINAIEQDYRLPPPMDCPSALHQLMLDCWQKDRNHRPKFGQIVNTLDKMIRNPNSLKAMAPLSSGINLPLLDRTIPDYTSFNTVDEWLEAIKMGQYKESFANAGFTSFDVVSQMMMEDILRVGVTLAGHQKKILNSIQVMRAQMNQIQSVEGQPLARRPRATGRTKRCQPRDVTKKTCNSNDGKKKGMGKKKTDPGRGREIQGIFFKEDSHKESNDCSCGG

| Structure (SMILES) | inhibition [1] [%] | inhibition [2] [%] | inhibition [3] [%] | inhibition [4] [%] | inhibition [5] [%] | inhibition [6] [%] | inhibition [7] [%] | inhibition [8] [%] |
| --- | --- | --- | --- | --- | --- | --- | --- | --- |
| O=C(NC1(Cc2ccc(F)cc2)CC1)c1ccc2nc(N[C@H]3CC[C@H](O)CC3)c3nccn3c2c1 | < 35 | < 35 | < 35 | < 35 | < 35 | < 35 | < 35 | < 35 |
| O=C(NC1(c2ccc(F)cc2)CC1)c1ccc2nc(N[C@H]3CC[C@H](O)CC3)c3nccn3c2c1 | < 35 | < 35 | < 35 | < 35 | < 35 | < 35 | < 35 | < 35 |
| CCC[C@@H](NC(=O)c1ccc2nc(N[C@H]3CC[C@H](O)CC3)c3nccn3c2c1)c1ccccc1 | < 35 | < 35 | < 35 | < 35 | < 35 | < 35 | < 35 | < 35 |
| O=C(NC1(c2ccccc2)CCC1)c1ccc2nc(N[C@H]3CC[C@H](O)CC3)c3nccn3c2c1 | < 35 | < 35 | < 35 | < 35 | < 35 | < 35 | < 35 | < 35 |
| O=C(O)c1ccc2nc(N[C@H]3CC[C@H](O)CC3)c3nccn3c2c1 | < 35 | < 35 | < 35 | 59.1 | < 35 | 57.7 | 48.9 | < 35 |
| NC(=O)c1ccc2nc(N[C@H]3CC[C@H](O)CC3)c3nccn3c2c1 | < 35 | < 35 | < 35 | < 35 | < 35 | 44.4 | 39.1 | < 35 |
| O=C(NC1(c2ccccc2)CC1)c1ccc2nc(N[C@H]3CC[C@H](O)CC3)c3nccn3c2c1 | < 35 | < 35 | < 35 | < 35 | < 35 | < 35 | < 35 | < 35 |

Results, then the compound that gave them:

| inhibition [1] [%] | inhibition [2] [%] | inhibition [3] [%] | inhibition [4] [%] | inhibition [5] [%] | inhibition [6] [%] | inhibition [7] [%] | inhibition [8] [%] | Structure (SMILES) |
| --- | --- | --- | --- | --- | --- | --- | --- | --- |
| < 35 | < 35 | < 35 | < 35 | < 35 | < 35 | < 35 | < 35 | CC(C)(NC(=O)c1ccc2nc(N[C@H]3CC[C@H](O)CC3)c3nccn3c2c1)c1ccccc1 |
| < 35 | < 35 | < 35 | < 35 | < 35 | < 35 | < 35 | < 35 | O=C(N[C@H](CO)c1ccccc1)c1ccc2nc(N[C@H]3CC[C@H](O)CC3)c3nccn3c2c1 |
| < 35 | < 35 | < 35 | < 35 | < 35 | < 35 | < 35 | < 35 | C[C@H](NC(=O)c1ccc2nc(N[C@H]3CC[C@H](O)CC3)c3nccn3c2c1)c1ccccc1 |
| < 35 | < 35 | < 35 | < 35 | < 35 | < 35 | < 35 | < 35 | C[C@@H](NC(=O)c1ccc2nc(N[C@H]3CC[C@H](O)CC3)c3nccn3c2c1)c1ccccc1 |
| < 35 | < 35 | < 35 | < 35 | < 35 | < 35 | < 35 | < 35 | CC[C@@H](NC(=O)c1ccc2nc(N[C@H]3CC[C@H](O)CC3)c3nccn3c2c1)c1ccccc1 |
